Experimental data as given in patent US20250230193A1, “CYCLIC COMPOUND HAVING SELECTIVE KRAS INHIBITORY EFFECT ON HRAS AND NRAS” (CHUGAI SEIYAKU KABUSHIKI KAISHA, priority 2022, published 2025).
Where a SMILES comes first, the peptide text is derived from it. Bridges are numbered along the chain shown (N, C = ends). [ ]: non-standard residue; d: D form. The star is where a group is joined. hPhe(3-Cl-4-CF3) = N[C@@H](CCc1ccc(C(F)(F)F)c(Cl)c1)C(=O)O; NPrPhe(4-CF3) = CCCN[C@@H](Cc1ccc(C(F)(F)F)cc1)C(=O)O; NMeGly(cPent) = CN[C@H](C(=O)O)C1CCCC1; NEtLeu = CCN[C@@H](CC(C)C)C(=O)O; NMeD = CN[C@@H](CC(=O)O)C(=O)O; Morpholide = C1CN(*)CCO1; NMeA = CN[C@@H](C)C(=O)O; Ac5c = NC1(C(=O)O)CCCC1; Aze = O=C(O)[C@@H]1CCN1; Sar = CNCC(=O)O

Legend:
[1] = biological target: GDP-bound NRAS wild-type protein (Homo sapiens, UniProt P01111); experiment: Binding to NRAS by surface plasmon resonance (SPR), Single Cycle Kinetics; conditions: for NRAS/KRAS (ratio of KD value with respect to NRAS to KD value with respect to KRAS): GDP-bound NRAS wild-type vs GDP-bound KRAS wild-type
[2] = biological target: GDP-bound HRAS wild-type protein (Homo sapiens, UniProt P01112); experiment: Binding to HRAS by surface plasmon resonance (SPR), Single Cycle Kinetics; conditions: for HRAS/KRAS (ratio of KD value with respect to HRAS to KD value with respect to KRAS): GDP-bound HRAS wild-type vs GDP-bound KRAS wild-type
GDP-bound HRAS wild-type protein, sequence (P01112 whole entry): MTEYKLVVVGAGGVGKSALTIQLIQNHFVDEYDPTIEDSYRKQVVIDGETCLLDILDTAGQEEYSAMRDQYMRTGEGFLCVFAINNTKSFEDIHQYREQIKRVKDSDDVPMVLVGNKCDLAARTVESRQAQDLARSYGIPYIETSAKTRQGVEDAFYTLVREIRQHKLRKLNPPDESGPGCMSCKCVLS

GDP-bound NRAS wild-type protein, sequence (P01111 whole entry): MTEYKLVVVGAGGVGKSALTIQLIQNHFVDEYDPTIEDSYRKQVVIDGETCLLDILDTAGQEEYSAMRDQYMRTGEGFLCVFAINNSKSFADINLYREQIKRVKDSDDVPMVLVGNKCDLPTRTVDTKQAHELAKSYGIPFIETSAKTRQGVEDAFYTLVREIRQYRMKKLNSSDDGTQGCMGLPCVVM

For `CCCN1C(=O)[C@@H]2CCN2C(=O)[C@H](C)N(C)C(=O)[C@H]([C@@H](C)CC)NC(=O)[C@H](CC(C)C)N(CC)C(=O)C[C@@H](C(=O)N2CCOCC2)N(C)C(=O)[C@H](C2CCCC2)N(C)C(=O)C2(CCCC2)NC(=O)[C@@H]2CCCN2C(=O)[C@H](CCc2ccc(C(F)(F)F)c(Cl)c2)NC(=O)CN(C)C(=O)[C@@H]1Cc1ccc(C(F)(F)F)cc1` [PP0151] ([NEtLeu]I[NMeA][Aze][NPrPhe(4-CF3)][Sar][hPhe(3-Cl-4-CF3)]P[Ac5c][NMeGly(cPent)][NMeD]-Morpholide; lactam N-11), the “NRAS/KRAS (ratio of KD for GDP-bound NRAS wild-type to KD for KRAS)” value ([1]; KD ratio NRAS/KRAS, SPR) was “C (A compound having a KD ratio of 0.1 or more and less than 3 is denoted as C)” and the “HRAS/KRAS (ratio of KD for GDP-bound HRAS wild-type to KD for KRAS)” value ([2]; KD ratio HRAS/KRAS, SPR) was “C (A compound having a KD ratio of 0.1 or more and less than 3 is denoted as C)”.
`CCC[C@H]1C(=O)N[C@@H]([C@@H](C)CC)C(=O)N(C)CC(=O)N(C)[C@H]2C/C=C\CCN(C2=O)[C@@H](Cc2ccc(C)cc2)C(=O)N(C)CC(=O)N[C@@H](CCc2ccc3sc(C)c(C)c3c2)C(=O)N2C[C@H](OCC)C[C@H]2C(=O)NC2(CC(C)(C)C2)C(=O)N(C)[C@@H](C(CC)CC)C(=O)N(C)[C@H](C(=O)N(C)C)CC(=O)N1C` [PP2902] was tested, and the “NRAS/KRAS (ratio of KD value with respect to GDP-bound NRAS wild-type protein to KD value with respect to KRAS)” value ([1]; KD ratio NRAS/KRAS, class symbols) was “AA (a compound having 20 or more is denoted as AA)” and the “HRAS/KRAS (ratio of KD value with respect to GDP-bound HRAS wild-type protein to KD value with respect to KRAS)” value ([2]; KD ratio HRAS/KRAS, class symbols) was “A (a compound having 10 or more and less than 20 is denoted as A)”.
`CC[C@H](C)[C@@H]1NC(=O)[C@H](CC(C)C)N(C)C(=O)C[C@@H](C(=O)N2CCOCC2)N(C)C(=O)[C@H](C2CCCC2)N(C)C(=O)C2(CCCCC2)NC(=O)[C@@H]2CCCN2C(=O)[C@H](CCc2cc(F)c(C(F)(F)F)c(F)c2)NC(=O)CN(C)C(=O)[C@H](Cc2ccc(C(F)(F)F)cc2)N2CCCCC[C@@H](C2=O)N(C)C(=O)CN(C)C1=O` [PP0498] was tested, and the “NRAS/KRAS (ratio of KD value with respect to GDP-bound NRAS wild-type protein to KD value with respect to KRAS)” value ([1]; KD ratio NRAS/KRAS, SPR) was “B (a compound having 3 or more and less than 10 is denoted as B)” and the “HRAS/KRAS (ratio of KD value with respect to GDP-bound HRAS wild-type protein to KD value with respect to KRAS)” value ([2]; KD ratio HRAS/KRAS, SPR) was “B (a compound having 3 or more and less than 10 is denoted as B)”.
For `CCCOC[C@H]1C(=O)N[C@@H]([C@@H](C)CC)C(=O)N(C)CC(=O)N(C)[C@H]2C/C=C\CCN(C2=O)[C@@H](Cc2ccc(C)cc2)C(=O)N(C)CC(=O)N[C@@H](CCc2ccc(C(F)(F)F)c(OC)c2)C(=O)N2C[C@H](OCC)C[C@H]2C(=O)N(C)C2(CCC2)C(=O)N(C)[C@@H](C2CCCC2)C(=O)N(C)[C@H](C(=O)N(C)C)CC(=O)N1C` [PP2326], the “NRAS/KRAS (ratio of KD value with respect to NRAS to KD value with respect to KRAS)” value ([1]; SPR) was “A (a compound having 10 or more and less than 20 is denoted as A)” and the “HRAS/KRAS (ratio of KD value with respect to HRAS to KD value with respect to KRAS)” value ([2]; SPR) was “B (a compound having 3 or more and less than 10 is denoted as B)”.
With `CCO[C@@H]1C[C@H]2C(=O)NC3(CCC3)C(=O)N(C)[C@@H](C3CCCC3)C(=O)N(C)[C@H](C(=O)N3CCOCC3)CC(=O)N(C)[C@@H](CC3CCCCC3)C(=O)N[C@@H]([C@@H](C)CC)C(=O)N(C)CC(=O)N(C)[C@H]3CCCCCN(C3=O)[C@@H](Cc3ccc(C(F)(F)F)cc3)C(=O)N(C)CC(=O)N[C@@H](CCc3cc(F)c(C(F)(F)F)c(F)c3)C(=O)N2C1` [PP0686] the “NRAS/KRAS (ratio of KD value with respect to GDP-bound NRAS wild-type protein to KD value with respect to KRAS)” value ([1]; KD ratio NRAS/KRAS, SPR) was “B (a compound having 3 or more and less than 10 is denoted as B)” and the “HRAS/KRAS (ratio of KD value with respect to GDP-bound HRAS wild-type protein to KD value with respect to KRAS)” value ([2]; KD ratio HRAS/KRAS, SPR) was “B (a compound having 3 or more and less than 10 is denoted as B)”.
`CCC[C@H]1C(=O)N[C@@H](C(CC)CC)C(=O)N(C)CC(=O)N(C)[C@H]2C/C=C\CCN(C2=O)[C@@H](Cc2ccc(C)cc2)C(=O)N(C)CC(=O)N[C@@H](CCc2ccc(C(F)(F)F)c(Cl)c2)C(=O)N2C[C@H](OCC)C[C@H]2C(=O)NC2(CC(C)(C)C2)C(=O)N(C)[C@@H](CC(C)(C)C)C(=O)N(C)[C@H](C(=O)N(C)C)CC(=O)N1C` [PP2207] was tested, and the “NRAS/KRAS (ratio of KD value with respect to NRAS to KD value with respect to KRAS)” value ([1]; SPR) was “A (a compound having 10 or more and less than 20 is denoted as A)” and the “HRAS/KRAS (ratio of KD value with respect to HRAS to KD value with respect to KRAS)” value ([2]; SPR) was “A (a compound having 10 or more and less than 20 is denoted as A)”.
`CC[C@H](C)[C@@H]1NC(=O)[C@H](CC(C)C)N(C)C(=O)C[C@@H](C(=O)N2CCOCC2)N(C)C(=O)[C@H](C2CCCC2)N(C)C(=O)C2(CCCC2)NC(=O)[C@@H]2CCCN2C(=O)[C@H](CCc2cc(F)c(C(F)(F)F)c(F)c2)NC(=O)CN(C)C(=O)[C@H](Cc2ccc(C(F)(F)F)cc2)N2CCCCC[C@@H](C2=O)N(C)C(=O)[C@@H]2CCCN2C1=O` [PP0485] was tested, and the “NRAS/KRAS (ratio of KD value with respect to GDP-bound NRAS wild-type protein to KD value with respect to KRAS)” value ([1]; KD ratio NRAS/KRAS, SPR) was “A (a compound having 10 or more and less than 20 is denoted as A)” and the “HRAS/KRAS (ratio of KD value with respect to GDP-bound HRAS wild-type protein to KD value with respect to KRAS)” value ([2]; KD ratio HRAS/KRAS, SPR) was “B (a compound having 3 or more and less than 10 is denoted as B)”.
